Target: recombinant human HPK1 (Homo sapiens (Human), UniProt Q92918)
Test: HPK1 kinase assay (ADP-Glo)
Assay type: biochemical
Conditions: 25 μM ATP, MBP substrate
Procedure: HPK1 kinase activity was measured by Promega's ADP-Glo™ kinase assay. In this assay, 5 ng of recombinant human HPK1 (signalchem) is incubated with 5 μL of compounds (0.5% DMSO), 5 μL of MBP (0.5 μg/μl) and 5 μL of ATP (25 μM) in buffer (40 mM Tris, 7.5; 20 mM MgCl2; 0.1 mg/ml BSA; 5 μM DTT). The assay was started by incubating the reaction mixture in a 96-well plate at 30′ C for 40 minutes. After the incubation, 25 uL ADP-Glo reagent was added and the reaction was incubated at room temperature for 40-min to stop the reaction and degrade residual ATP. The ADP product was then converted to ATP by adding 50 uL per well of detection reagent. Luminescence was detected after 30-min room temperature incubation with the Molecular device I3X plate reader. The IC50 values were calculated from a series of percent inhibition values determined at a range of inhibitor concentration using software routines as implemented in the GraphPad Prism 7 software and SigmaPlot13.0.

Sequence of recombinant human HPK1 (Q92918 whole entry): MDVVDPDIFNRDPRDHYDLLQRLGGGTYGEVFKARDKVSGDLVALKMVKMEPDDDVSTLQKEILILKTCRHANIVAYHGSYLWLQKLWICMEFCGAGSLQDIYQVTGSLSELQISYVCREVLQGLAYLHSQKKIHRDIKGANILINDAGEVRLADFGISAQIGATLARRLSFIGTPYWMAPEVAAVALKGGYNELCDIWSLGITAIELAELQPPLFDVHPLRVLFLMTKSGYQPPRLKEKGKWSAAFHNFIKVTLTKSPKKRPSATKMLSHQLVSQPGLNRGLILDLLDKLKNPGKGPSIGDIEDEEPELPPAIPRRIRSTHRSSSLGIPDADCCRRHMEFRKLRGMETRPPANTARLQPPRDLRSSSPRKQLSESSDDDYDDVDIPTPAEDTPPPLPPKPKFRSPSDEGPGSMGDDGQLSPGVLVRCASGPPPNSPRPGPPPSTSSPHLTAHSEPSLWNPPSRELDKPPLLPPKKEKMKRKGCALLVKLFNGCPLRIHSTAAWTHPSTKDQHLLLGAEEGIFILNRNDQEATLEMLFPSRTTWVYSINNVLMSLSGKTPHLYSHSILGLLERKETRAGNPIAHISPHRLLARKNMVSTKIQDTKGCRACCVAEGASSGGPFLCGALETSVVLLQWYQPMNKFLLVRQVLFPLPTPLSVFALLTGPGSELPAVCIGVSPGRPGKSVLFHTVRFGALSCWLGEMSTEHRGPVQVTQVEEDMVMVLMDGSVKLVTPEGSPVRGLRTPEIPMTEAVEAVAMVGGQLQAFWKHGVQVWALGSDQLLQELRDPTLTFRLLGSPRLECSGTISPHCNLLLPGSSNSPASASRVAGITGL

SMILES	IC50
Cc1ccc2[nH]ncc2c1-c1ccc2nc(NC(=O)C3CC3)sc2c1 [Example 1, N-(6-(5-methyl-1H-indazol-4-yl)benzo[d]thiazol-2-yl)cyclopropanecarboxamide]	101 to 500 nM
Cc1ccc2[nH]ncc2c1-c1ccc2nc(NC(=O)[C@@H]3C[C@@H]3F)sc2c1 [Example 2, (1S,2S)-2-fluoro-N-(6-(5-methyl-1H-indazol-4-yl)benzo[d]thiazol-2-yl)cyclopropane-1-carboxamide]	101 to 500 nM
Cc1ccc2[nH]ncc2c1-c1ccc2nc(NC(=O)OC(C)(C)C)sc2c1 [Example 3, tert-butyl (6-(5-methyl-1H-indazol-4-yl)benzo[d]thiazol-2-yl)carbamate]	> 1000 nM
Cc1ccc2[nH]ncc2c1-c1ccc2nc(NC(=O)C3CCC3)sc2c1 [Example 4, N-(6-(5-methyl-1H-indazol-4-yl)benzo[d]thiazol-2-yl)cyclobutanecarboxamide]	501 to 1000 nM
Cc1ccc2[nH]ncc2c1-c1ccc2nc(NC(=O)C3CC3(F)F)sc2c1 (centres unmarked) [Example 5, 2,2-difluoro-N-(6-(5-methyl-1H-indazol-4-yl)benzo[d]thiazol-2-yl)cyclopropane-1-carboxamide]	101 to 500 nM
Cc1ccc2[nH]ncc2c1-c1ccc2nc(NC(=O)C3CC(F)C3)sc2c1 [Example 6, (1S,3S)-3-fluoro-N-(6-(5-methyl-1H-indazol-4-yl)benzo[d]thiazol-2-yl)cyclobutane-1-carboxamide]	101 to 500 nM
Cc1ccc2[nH]ncc2c1-c1ccc2nc(NC(=O)C3CC(F)C3)sc2c1 [Example 7, (1R,3R)-3-fluoro-N-(6-(5-methyl-1H-indazol-4-yl)benzo[d]thiazol-2-yl)cyclobutane-1-carboxamide]	101 to 500 nM
Cc1ccc2[nH]ncc2c1-c1ccc2nc(NC(=O)c3ccccc3)sc2c1 [Example 8, N-(6-(5-methyl-1H-indazol-4-yl)benzo[d]thiazol-2-yl)benzamide]	> 1000 nM
CCCCC(=O)Nc1nc2ccc(-c3c(C)ccc4[nH]ncc34)cc2s1 [Example 9, N-(6-(5-methyl-1H-indazol-4-yl)benzo[d]thiazol-2-yl)pentanamide]	> 1000 nM
Cc1ccc2[nH]ncc2c1-c1ccc2nc(NC(=O)C3CCCC3)sc2c1 [Example 10, N-(6-(5-methyl-1H-indazol-4-yl)benzo[d]thiazol-2-yl)cyclopentanecarboxamide]	> 1000 nM
Cc1ccc2[nH]ncc2c1-c1ccc2nc(NC(=O)C3CC(F)(F)C3)sc2c1 [Example 11, 3,3-difluoro-N-(6-(5-methyl-1H-indazol-4-yl)benzo[d]thiazol-2-yl)cyclobutane-1-carboxamide]	501 to 1000 nM
Cc1ccc2[nH]ncc2c1-c1ccc2nc(NC(=O)c3ccccn3)sc2c1 [Example 12, N-(6-(5-methyl-1H-indazol-4-yl)benzo[d]thiazol-2-yl)picolinamide]	> 1000 nM
O=C(Nc1nc2ccc(-c3c(-c4cccs4)ccc4[nH]ncc34)cc2s1)C1CC1 [Example 13, N-(6-(5-(thiophen-2-yl)-1H-indazol-4-yl)benzo[d]thiazol-2-yl)cyclopropanecarboxamide]	> 1000 nM
O=C(Nc1nc2ccc(-c3cccc4[nH]ncc34)cc2s1)C1CC1 [Example 14, N-(6-(1H-indazol-4-yl)benzo[d]thiazol-2-yl)cyclopropanecarboxamide]	> 1000 nM
O=C(Nc1nc2ccc(-c3c(F)ccc4[nH]ncc34)cc2s1)C1CC1 [Example 15, N-(6-(5-fluoro-1H-indazol-4-yl)benzo[d]thiazol-2-yl)cyclopropanecarboxamide]	101 to 500 nM
O=C(Nc1nc2ccc(-c3c(Cl)ccc4[nH]ncc34)cc2s1)C1CC1 [Example 16, N-(6-(5-chloro-1H-indazol-4-yl)benzo[d]thiazol-2-yl)cyclopropanecarboxamide]	101 to 500 nM
O=C(Nc1nc2ccc(-c3c(C(F)(F)F)ccc4[nH]ncc34)cc2s1)C1CC1 [Example 17, N-(6-(5-(trifluoromethyl)-1H-indazol-4-yl)benzo[d]thiazol-2-yl)cyclopropanecarboxamide]	101 to 500 nM
O=C(Nc1nc2ccc(-c3c(-c4ccsc4)ccc4[nH]ncc34)cc2s1)C1CC1 [Example 18, N-(6-(5-(thiophen-3-yl)-1H-indazol-4-yl)benzo[d]thiazol-2-yl)cyclopropanecarboxamide]	> 1000 nM
O=C(Nc1nc2ccc(-c3ccc(Cl)c4[nH]ncc34)cc2s1)C1CC1 [Example 19, N-(6-(7-chloro-1H-indazol-4-yl)benzo[d]thiazol-2-yl)cyclopropanecarboxamide]	> 1000 nM

SMILES	IC50
O=C(Nc1nc2ccc(-c3cc(Cl)cc4[nH]ncc34)cc2s1)C1CC1 [Example 20, N-(6-(6-chloro-1H-indazol-4-yl)benzo[d]thiazol-2-yl)cyclopropanecarboxamide]	> 1000 nM
CC(C)(C)OC(=O)c1ccc2[nH]ncc2c1-c1ccc2nc(NC(=O)C3CC3)sc2c1 [Example 21, tert-butyl 4-(2-(cyclopropanecarboxamido)benzo[d]thiazol-6-yl)-1H-indazole-5-carboxylate]	> 1000 nM
O=C(Nc1nc2ccc(-c3cc(-c4cccs4)cc4[nH]ncc34)cc2s1)C1CC1 [Example 22, N-(6-(6-(thiophen-2-yl)-1H-indazol-4-yl)benzo[d]thiazol-2-yl)cyclopropanecarboxamide]	> 1000 nM
O=C(NCc1ccsc1)c1ccc2[nH]ncc2c1-c1ccc2nc(NC(=O)C3CC3)sc2c1 [Example 23, 4-(2-(cyclopropanecarboxamido)benzo[d]thiazol-6-yl)-N-(thiophen-3-ylmethyl)-1H-indazole-5-carboxamide]	> 1000 nM
COc1ccc2[nH]ncc2c1-c1ccc2nc(NC(=O)C3CC3)sc2c1 [Example 24, N-(6-(5-methoxy-1H-indazol-4-yl)benzo[d]thiazol-2-yl)cyclopropanecarboxamide]	101 to 500 nM
O=C(Nc1nc2ccc(-c3c(CO)ccc4[nH]ncc34)cc2s1)C1CC1 [Example 25, N-(6-(5-(hydroxymethyl)-1H-indazol-4-yl)benzo[d]thiazol-2-yl)cyclopropanecarboxamide]	501 to 1000 nM
Cc1ccc2[nH]nc(N)c2c1-c1ccc2nc(NC(=O)C3CC3)sc2c1 [Example 26, N-(6-(3-amino-5-methyl-1H-indazol-4-yl)benzo[d]thiazol-2-yl)cyclopropanecarboxamide]	> 1000 nM
O=C(Nc1nc2ccc(-c3c(O)ccc4[nH]ncc34)cc2s1)C1CC1 [Example 27, N-(6-(5-hydroxy-1H-indazol-4-yl)benzo[d]thiazol-2-yl)cyclopropanecarboxamide]	> 1000 nM
CCc1ccc2[nH]ncc2c1-c1ccc2nc(NC(=O)C3CC3)sc2c1 [Example 28, N-(6-(5-ethyl-1H-indazol-4-yl)benzo[d]thiazol-2-yl)cyclopropanecarboxamide]	101 to 500 nM
N#Cc1ccc2[nH]ncc2c1-c1ccc2nc(NC(=O)C3CC3)sc2c1 [Example 29, N-(6-(5-cyano-1H-indazol-4-yl)benzo[d]thiazol-2-yl)cyclopropanecarboxamide]	101 to 500 nM
O=C(Nc1nc2ccc(-c3c(Cl)ccc4[nH]ncc34)cc2s1)[C@@H]1C[C@@H]1F [Example 30, (1S,2S)-N-(6-(5-chloro-1H-indazol-4-yl)benzo[d]thiazol-2-yl)-2-fluorocyclopropane-1-carboxamide]	101 to 500 nM
CN(C)CCOc1ccc2[nH]ncc2c1-c1ccc2nc(NC(=O)[C@@H]3C[C@@H]3F)sc2c1 [Example 31, (1S,2S)-N-(6-(5-(2-(dimethylamino)ethoxy)-1H-indazol-4-yl)benzo[d]thiazol-2-yl)-2-fluorocyclopropane-1-carboxamide]	> 1000 nM
Cc1ccc2[nH]ncc2c1-c1ccc2nc(NC(=S)C3CC3)sc2c1 [Example 32, N-(6-(5-methyl-1H-indazol-4-yl)benzo[d]thiazol-2-yl)cyclopropanecarbothioamide]	101 to 500 nM
O=C(Nc1nc2ccc(-c3c(C(F)F)ccc4[nH]ncc34)cc2s1)[C@@H]1C[C@@H]1F [Example 33, (1S,2S)-N-(6-(5-(difluoromethyl)-1H-indazol-4-yl)benzo[d]thiazol-2-yl)-2-fluorocyclopropane-1-carboxamide]	101 to 500 nM
COCCOc1ccc2[nH]ncc2c1-c1ccc2nc(NC(=O)[C@@H]3C[C@@H]3F)sc2c1 [Example 34, (1S,2S)-2-fluoro-N-(6-(5-(2-methoxyethoxy)-1H-indazol-4-yl)benzo[d]thiazol-2-yl)cyclopropane-1-carboxamide]	> 1000 nM
C=Cc1ccc2[nH]ncc2c1-c1ccc2nc(NC(=O)[C@@H]3C[C@@H]3F)sc2c1 [Example 35, (1S,2S)-2-fluoro-N-(6-(5-vinyl-1H-indazol-4-yl)benzo[d]thiazol-2-yl)cyclopropane-1-carboxamide]	101 to 500 nM
O=C(Nc1nc2ccc(-c3c(CF)ccc4[nH]ncc34)cc2s1)[C@@H]1C[C@@H]1F [Example 36, (1S,2S)-2-fluoro-N-(6-(5-(fluoromethyl)-1H-indazol-4-yl)benzo[d]thiazol-2-yl)cyclopropane-1-carboxamide]	101 to 500 nM
O=C(Nc1nc2ccc(-c3c(C4CC4)ccc4[nH]ncc34)cc2s1)[C@@H]1C[C@@H]1F [Example 37, (1S,2S)-N-(6-(5-cyclopropyl-1H-indazol-4-yl)benzo[d]thiazol-2-yl)-2-fluorocyclopropane-1-carboxamide]	101 to 500 nM
O=C(Nc1nc2ccc(-c3c(Cn4cccn4)ccc4[nH]ncc34)cc2s1)[C@@H]1C[C@@H]1F [Example 38, (1S,2S)-N-(6-(5-((1H-pyrazol-1-yl)methyl)-1H-indazol-4-yl)benzo[d]thiazol-2-yl)-2-fluorocyclopropane-1-carboxamide]	> 1000 nM

From patent publication US11649255B2, “Indazoles as hematopoietic progenitor kinase 1 (HPK1) inhibitors and methods using same” (1st Biotherapeutics, Inc., priority 2020, dated 2023)
